# According to patent US20230085307A1, “PYRIDAZINONE COMPOUND AND HERBICIDE” (NISSAN CHEMICAL CORPORATION, priority 2019, published 2023):
# Test system: velvetleaf
# Experiment: Test Example 4: herbicidal effect by soil treatment (Table 19, symbol M)
# Assay type: in vivo, velvetleaf (Abutilon theophrasti)
# Conditions: amount of applied herbicide 320 g/ha
# Method in brief: (§1)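 Emulsion of test compound, water-diluted to predetermined amount, sprayed on soil after sowing (seed depth ~1.5 cm, sterilized diluvial soil). Greenhouse, 25–30° C. Effect graded at three weeks post-spray.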
row,SMILES,"M: velvetleaf, herbicidal effect grade"
1,CCCC(=O)Oc1c(C)nn(C)c(=O)c1-c1c(-c2ccc(F)cc2OCC)sc2cc(C)ccc12 [3-058],5 (Herbicidal rate of 90% or more (almost completely withered))
2,CCCC(=O)Oc1c(C)nn(C)c(=O)c1-c1c(-c2ccccc2)sc2cc(OC)ccc12 [3-062],0 (Herbicidal rate of 5% or less (almost no effect))

# Test system: wild oat
# Experiment: Test Example 4: herbicidal effect by soil treatment (Table 19, symbol I)
# Assay type: in vivo, wild oat (Avena fatua)
# Conditions: amount of applied herbicide 320 g/ha
# Method in brief: as §1
row,SMILES,"I: wild oat, herbicidal effect grade"
1,CCCC(=O)Oc1c(C)nn(C)c(=O)c1-c1c(-c2ccc(F)cc2OCC)sc2cc(C)ccc12 [3-058],0 (Herbicidal rate of 5% or less (almost no effect))
2,CCCC(=O)Oc1c(C)nn(C)c(=O)c1-c1c(-c2ccccc2)sc2cc(OC)ccc12 [3-062],0 (Herbicidal rate of 5% or less (almost no effect))

# Test system: barnyard grass
# Experiment: Test Example 5: herbicidal effect by foliage application, plastic box (Table 20, symbol H)
# Assay type: in vivo, barnyard grass (Echinochloa crus-galli)
# Conditions: foliage application, 320 g/ha, three weeks after application
# Method in brief: (§2)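 Post-emergence foliar test in sterilized diluvial soil. Compound applied as water-diluted emulsion at a predetermined rate to 14-day-old plants; evaluation at three weeks.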
row,SMILES,"H: barnyard grass, herbicidal effect grade"
1,CCCC(=O)Oc1c(C)nn(C)c(=O)c1-c1c(-c2ccc(F)cc2OCC)sc2cc(C)ccc12 [3-058],5 (Herbicidal rate of 90% or more (almost completely withered))
2,CCCC(=O)Oc1c(C)nn(C)c(=O)c1-c1c(-c2ccccc2)sc2cc(OC)ccc12 [3-062],0 (Herbicidal rate of 5% or less (almost no effect))

# Test system: Italian ryegrass
# Experiment: Test Example 5: herbicidal effect by foliage application, plastic box (Table 20, symbol K)
# Assay type: in vivo, Italian ryegrass (Lolium multiflorum)
# Conditions: foliage application, 320 g/ha, three weeks after application
# Method in brief: as §2
row,SMILES,"K: Italian ryegrass, herbicidal effect grade"
1,CCCC(=O)Oc1c(C)nn(C)c(=O)c1-c1c(-c2ccc(F)cc2OCC)sc2cc(C)ccc12 [3-058],5 (Herbicidal rate of 90% or more (almost completely withered))
2,CCCC(=O)Oc1c(C)nn(C)c(=O)c1-c1c(-c2ccccc2)sc2cc(OC)ccc12 [3-062],2 (Herbicidal rate of 20% or more and less than 40%)

# Test system: lambsquarters
# Experiment: Test Example 5: herbicidal effect by foliage application, plastic box (Table 20, symbol O)
# Assay type: in vivo, lambsquarters (Chenopodium album)
# Conditions: foliage application, 320 g/ha, three weeks after application
# Method in brief: as §2
row,SMILES,"O: lambsquarters, herbicidal effect grade"
1,CCCC(=O)Oc1c(C)nn(C)c(=O)c1-c1c(-c2ccc(F)cc2OCC)sc2cc(C)ccc12 [3-058],5 (Herbicidal rate of 90% or more (almost completely withered))
2,CCCC(=O)Oc1c(C)nn(C)c(=O)c1-c1c(-c2ccccc2)sc2cc(OC)ccc12 [3-062],2 (Herbicidal rate of 20% or more and less than 40%)

# Test system: lambsquarters
# Experiment: Test Example 4: herbicidal effect by soil treatment (Table 19, symbol O)
# Assay type: in vivo, lambsquarters (Chenopodium album)
# Conditions: amount of applied herbicide 320 g/ha
# Method in brief: as §1
row,SMILES,"O: lambsquarters, herbicidal effect grade"
1,CCCC(=O)Oc1c(C)nn(C)c(=O)c1-c1c(-c2ccc(F)cc2OCC)sc2cc(C)ccc12 [3-058],5 (Herbicidal rate of 90% or more (almost completely withered))
2,CCCC(=O)Oc1c(C)nn(C)c(=O)c1-c1c(-c2ccccc2)sc2cc(OC)ccc12 [3-062],0 (Herbicidal rate of 5% or less (almost no effect))

# Test system: late watergrass
# Experiment: Test Example 2: herbicidal activity, application during weed generation under submerged conditions (Table 17, symbol A)
# Assay type: in vivo, late watergrass (Echinochloa oryzicola)
# Conditions: AAH 320 g/ha; application during weed generation, submerged conditions
# Method in brief: (§3)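 Wagner pot, alluvial soil, 4 cm flood; mixed sowing of all species; greenhouse 25° C.–30° C. Emulsifiable formulation, water-diluted to predetermined dose, applied to paddy water at 1–2 leaf stage. Effect rated at 3 wk using the earlier test's scoring criteria.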
row,SMILES,"herbicidal effect rating, A: late watergrass"
1,CCCC(=O)Oc1c(C)nn(C)c(=O)c1-c1c(-c2ccc(F)cc2OCC)sc2cc(C)ccc12 [3-058],4 (Herbicidal rate of 70% or more and less than 90%)
2,CCCC(=O)Oc1c(C)nn(C)c(=O)c1-c1c(-c2ccccc2)sc2cc(OC)ccc12 [3-062],0 (Herbicidal rate of 5% or less (almost no effect))

# Test system: chickweed
# Experiment: Test Example 5: herbicidal effect by foliage application, plastic box (Table 20, symbol P)
# Assay type: in vivo, common chickweed (Stellaria media)
# Conditions: foliage application, 320 g/ha, three weeks after application
# Method in brief: as §2
row,SMILES,"P: chickweed, herbicidal effect grade"
1,CCCC(=O)Oc1c(C)nn(C)c(=O)c1-c1c(-c2ccc(F)cc2OCC)sc2cc(C)ccc12 [3-058],5 (Herbicidal rate of 90% or more (almost completely withered))
2,CCCC(=O)Oc1c(C)nn(C)c(=O)c1-c1c(-c2ccccc2)sc2cc(OC)ccc12 [3-062],5 (Herbicidal rate of 90% or more (almost completely withered))

# Test system: rice flat sedge
# Experiment: Test Example 3: herbicidal effect by foliage application, Wagner pot (Table 18, symbol E)
# Assay type: in vivo, rice flat sedge (Cyperus iria)
# Conditions: 320 g/ha
# Method in brief: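 Plants were sown in alluvial soil held under 0.1–0.5 cm standing water and grown 14 days in a greenhouse at 25–30 °C. An emulsifiable formulation, water-diluted to the set dose, was then sprayed onto the foliage, and effects were scored three weeks later using previously defined criteria.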
row,SMILES,herbicidal effect on rice flat sedge (E)
1,CCCC(=O)Oc1c(C)nn(C)c(=O)c1-c1c(-c2ccc(F)cc2OCC)sc2cc(C)ccc12 [3-058],5 (Herbicidal rate of 90% or more (almost completely withered))
2,CCCC(=O)Oc1c(C)nn(C)c(=O)c1-c1c(-c2ccccc2)sc2cc(OC)ccc12 [3-062],5 (Herbicidal rate of 90% or more (almost completely withered))

# Test system: oval-leafed pondweed
# Experiment: Test Example 1: herbicidal activity, application before weed generation under submerged conditions (Table 16, symbol C)
# Assay type: in vivo, oval-leafed pondweed (Monochoria vaginalis)
# Conditions: amount of applied herbicide 320 g/ha
# Method in brief: (§4)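 Alluvial soil was flooded to 4 cm depth, weed seeds were sown mixed and 2.5-leaf rice seedlings were transplanted. On sowing day, the compound's emulsion, diluted in water to a set dose, was applied to the water surface. Plants grew at 25–30 °C and were scored 0–5 after three weeks.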
row,SMILES,"Herbicidal effect, C: oval-leafed pondweed"
1,CCCC(=O)Oc1c(C)nn(C)c(=O)c1-c1c(-c2ccc(F)cc2OCC)sc2cc(C)ccc12 [3-058],3 (Herbicidal rate of 40% or more and less than 70%)
2,CCCC(=O)Oc1c(C)nn(C)c(=O)c1-c1c(-c2ccccc2)sc2cc(OC)ccc12 [3-062],4 (Herbicidal rate of 70% or more and less than 90%)

# Test system: windgrass
# Experiment: Test Example 5: herbicidal effect by foliage application, plastic box (Table 20, symbol L)
# Assay type: in vivo, windgrass (Apera spica-venti)
# Conditions: foliage application, 320 g/ha, three weeks after application
# Method in brief: as §2
row,SMILES,"L: windgrass, herbicidal effect grade"
1,CCCC(=O)Oc1c(C)nn(C)c(=O)c1-c1c(-c2ccc(F)cc2OCC)sc2cc(C)ccc12 [3-058],5 (Herbicidal rate of 90% or more (almost completely withered))
2,CCCC(=O)Oc1c(C)nn(C)c(=O)c1-c1c(-c2ccccc2)sc2cc(OC)ccc12 [3-062],0 (Herbicidal rate of 5% or less (almost no effect))

# Test system: velvetleaf
# Experiment: Test Example 5: herbicidal effect by foliage application, plastic box (Table 20, symbol M)
# Assay type: in vivo, velvetleaf (Abutilon theophrasti)
# Conditions: foliage application, 320 g/ha, three weeks after application
# Method in brief: as §2
row,SMILES,"M: velvetleaf, herbicidal effect grade"
1,CCCC(=O)Oc1c(C)nn(C)c(=O)c1-c1c(-c2ccc(F)cc2OCC)sc2cc(C)ccc12 [3-058],5 (Herbicidal rate of 90% or more (almost completely withered))
2,CCCC(=O)Oc1c(C)nn(C)c(=O)c1-c1c(-c2ccccc2)sc2cc(OC)ccc12 [3-062],3 (Herbicidal rate of 40% or more and less than 70%)

# Test system: wild oat
# Experiment: Test Example 5: herbicidal effect by foliage application, plastic box (Table 20, symbol I)
# Assay type: in vivo, wild oat (Avena fatua)
# Conditions: foliage application, 320 g/ha, three weeks after application
# Method in brief: as §2
row,SMILES,"I: wild oat, herbicidal effect grade"
1,CCCC(=O)Oc1c(C)nn(C)c(=O)c1-c1c(-c2ccc(F)cc2OCC)sc2cc(C)ccc12 [3-058],5 (Herbicidal rate of 90% or more (almost completely withered))
2,CCCC(=O)Oc1c(C)nn(C)c(=O)c1-c1c(-c2ccccc2)sc2cc(OC)ccc12 [3-062],2 (Herbicidal rate of 20% or more and less than 40%)

# Test system: Japanese bulrush
# Experiment: Test Example 2: herbicidal activity, application during weed generation under submerged conditions (Table 17, symbol B)
# Assay type: in vivo, Japanese bulrush (Schoenoplectus juncoides)
# Conditions: AAH 320 g/ha; application during weed generation, submerged conditions
# Method in brief: as §3
row,SMILES,"herbicidal effect rating, B: Japanese bulrush"
1,CCCC(=O)Oc1c(C)nn(C)c(=O)c1-c1c(-c2ccc(F)cc2OCC)sc2cc(C)ccc12 [3-058],5 (Herbicidal rate of 90% or more (almost completely withered))
2,CCCC(=O)Oc1c(C)nn(C)c(=O)c1-c1c(-c2ccccc2)sc2cc(OC)ccc12 [3-062],3 (Herbicidal rate of 40% or more and less than 70%)

# Test system: Italian ryegrass
# Experiment: Test Example 4: herbicidal effect by soil treatment (Table 19, symbol K)
# Assay type: in vivo, Italian ryegrass (Lolium multiflorum)
# Conditions: amount of applied herbicide 320 g/ha
# Method in brief: as §1
row,SMILES,"K: Italian ryegrass, herbicidal effect grade"
1,CCCC(=O)Oc1c(C)nn(C)c(=O)c1-c1c(-c2ccc(F)cc2OCC)sc2cc(C)ccc12 [3-058],0 (Herbicidal rate of 5% or less (almost no effect))
2,CCCC(=O)Oc1c(C)nn(C)c(=O)c1-c1c(-c2ccccc2)sc2cc(OC)ccc12 [3-062],0 (Herbicidal rate of 5% or less (almost no effect))

# Test system: persian speedwell
# Experiment: Test Example 4: herbicidal effect by soil treatment (Table 19, symbol R)
# Assay type: in vivo, Persian speedwell (Veronica persica)
# Conditions: amount of applied herbicide 320 g/ha
# Method in brief: as §1
row,SMILES,"R: persian speedwell, herbicidal effect grade"
1,CCCC(=O)Oc1c(C)nn(C)c(=O)c1-c1c(-c2ccc(F)cc2OCC)sc2cc(C)ccc12 [3-058],4 (Herbicidal rate of 70% or more and less than 90%)
2,CCCC(=O)Oc1c(C)nn(C)c(=O)c1-c1c(-c2ccccc2)sc2cc(OC)ccc12 [3-062],4 (Herbicidal rate of 70% or more and less than 90%)

# Test system: Japanese bulrush
# Experiment: Test Example 1: herbicidal activity, application before weed generation under submerged conditions (Table 16, symbol B)
# Assay type: in vivo, Japanese bulrush (Schoenoplectus juncoides)
# Conditions: amount of applied herbicide 320 g/ha
# Method in brief: as §4
row,SMILES,"Herbicidal effect, B: Japanese bulrush"
1,CCCC(=O)Oc1c(C)nn(C)c(=O)c1-c1c(-c2ccc(F)cc2OCC)sc2cc(C)ccc12 [3-058],5 (Herbicidal rate of 90% or more (almost completely withered))
2,CCCC(=O)Oc1c(C)nn(C)c(=O)c1-c1c(-c2ccccc2)sc2cc(OC)ccc12 [3-062],4 (Herbicidal rate of 70% or more and less than 90%)
